# Publication PMC4084891, “Decreased Phenotypic Susceptibility to Etravirine in Patients with Predicted Genotypic Sensitivity” (PLoS ONE, 2014)
# Where two headings read alike, the source gives them in different places.
# What was measured:
# [1] = system: HIV-1 reverse transcriptase, recovered from plasma of HIV-1 infected patients; assay: ExaVir Drug susceptibility assay (RT-based phenotypic), RT recovered from patient plasma; assay type: biochemical
# Experimental: Lysates containing intraviral RT were recovered from plasma using ExaVir Load, version 3 (Cavidi, Uppsala, Sweden). Briefly, virions from up to 1 ml plasma were bound to an ion exchange gel, washed, and the RT was extracted by lysing the purified virions. The RT was used to catalyse the incorporation of bromodeoxyuridine triphosphate (BrdUTP) into DNA via a poly-rA (ribodenylic acid template) plate. The amount of BrdU monophosphate (BrdUMP) incorporated into DNA was detected with an alkaline phosphatase (Ap) conjugated anti-BrdU monoclonal antibody. The Ap substrate para-nitrophenyl-diphosphate was used for colorimetric detection. […] The RT activity at each drug concentration was recalculated into percentage of RT activity in the absence of drug. The IC50 values were calculated using the median effect equation [23]. […] In the present study, two reference recombinant RTs, BH10-wild-type and its mutant form L100I, were analysed together with patient samples in each assay. The results of the phenotypic tests were evaluated independently by two persons (E.A, C.FR.K).
# [2] = target: HIV-1 reverse transcriptase, recovered from plasma of HIV-1 infected patients; parameters: method as in PMID 23364785; conditions: cited from earlier work
structure (smiles),measurement,setting,value
"Cc1cc(C#N)cc(C)c1Oc1nc(Nc2ccc(C#N)cc2)nc(N)c1Br [ETR, 4-[[6-amino-5-bromo-2[(4-cyanophenyl)amino]-4-pyrimidinyl]oxy]-3.5-dimethylbenzonitrile]",result of phenotypic assay,"[1]; patient 4, K103R mutation, NNRTI-naïve",sensitive
same,result of phenotypic assay,"[1]; patients/samples 7, 11b, 15, 9a and 12, NNRTI stopped earlier",No phenotypic resistance
same,IC50,"[1]; read-out: IC50 to ETR, mean ±SD, ten samples considered sensitive (3a, 4, 7, 9a, 11b, 12, 15, 16, 17, 18)",3.1 ± 1.3 µM
same,IC50,"[1]; read-out: IC50 to ETR, range, six samples with decreased susceptibility (1, 9b, 10, 11a, 19, 20)",6.4 to 13.6 µM
same,IC50,"[1]; read-out: IC50 to ETR, patient sample 1",11.8 µM
same,IC50,"[1]; read-out: IC50 to ETR, patient sample 2",> 100 µM
same,IC50,"[1]; read-out: IC50 to ETR, patient sample 3b",> 100 µM
same,IC50,"[1]; read-out: IC50 to ETR, patient sample 6",> 100 µM
same,IC50,"[1]; read-out: IC50 to ETR, patient sample 8a",> 100 µM
same,IC50,"[1]; read-out: IC50 to ETR, patient sample 8b",> 100 µM
same,IC50,"[1]; read-out: IC50 to ETR, patient sample 9b",9.2 µM
same,IC50,"[1]; read-out: IC50 to ETR, patient sample 10",13.6 µM
same,IC50,"[1]; read-out: IC50 to ETR, patient sample 11a",7.3 µM
same,IC50,"[1]; read-out: IC50 to ETR, patient sample 19",6.4 µM
same,IC50,"[1]; read-out: IC50 to ETR, patient sample 20",7.2 µM
same,IC50,"[2]; read-out: IC50 for ETR, mean ± SD (reproducibility analysis, first value), not influenced by RT amount within 40–828 fg/ml RT",1.6 ± 0.03 µM
same,IC50,"[2]; read-out: IC50 for ETR, mean ± SD (reproducibility analysis, second value), not influenced by RT amount within 40–828 fg/ml RT",3.1 ± 0.04 µM
same,IC50,"[2]; read-out: IC50 for RT activity in the presence of ETR, mean ±SD, treatment-naïve patients and reference recombinant RTs",2.5 ± 1 µM
